Results: PubChem BioAssay AID330 (DTP/NCI, 2004)
Several values for one entry are separate records, joined by “and”; a condition that tells them apart may be missing. Identical values can stand only once. Inconclusive results and toxic doses are left out.

System: P388 leukemia ip, CD2F1 mice, survival T/C
Experiment: NCI In Vivo Anticancer Drug Screen. Data for tumor model P388 Leukemia (intraperitoneal) in CD2F1 (CDF1) mice
Details: endpoint: median survival time, higher = longer survival
Outline: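 Mice carrying the transplanted tumor received test compound or vehicle. Survival was recorded in each group, and the value is the treated-group measurement divided by that of the vehicle-treated control group.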

[1] = dose: 100.0 mg/kg/injection, schedule: Q04DX003 (ip), vehicle: saline with Tween-80
[2] = dose: 200.0 mg/kg/injection, schedule: Q04DX003 (ip), vehicle: saline with Tween-80
[3] = dose: 400.0 mg/kg/injection, schedule: Q04DX003 (ip), vehicle: saline with Tween-80
[4] = dose: 6.25 mg/kg/injection, schedule: Q01DX009 (ip), vehicle: Klucel (hydroxypropylcellulose) (HPC)
[5] = dose: 12.5 mg/kg/injection, schedule: Q01DX009 (ip), vehicle: Klucel (hydroxypropylcellulose) (HPC)

COc1cc2c(c(OC)c1OC)-c1ccc(OC)c(=O)cc1[C@@H](NC(C)=O)CC2
T/C (dose: 0.02 mg/kg/injection, schedule: Q01DX009 (ip), vehicle: saline): 117 % of control | T/C (dose: 0.06 mg/kg/injection, schedule: Q01DX009 (ip), vehicle: saline): 119 % of control | T/C (dose: 0.08 mg/kg/injection, schedule: Q01DX009 (ip), vehicle: saline): 150 % of control | T/C (dose: 0.13 mg/kg/injection, schedule: Q01DX005 (ip), vehicle: saline): 120 % of control | T/C (dose: 0.16 mg/kg/injection, schedule: Q01DX009 (ip), vehicle: saline): 156 % of control | T/C (dose: 0.32 mg/kg/injection, schedule: Q01DX009 (ip), vehicle: saline): 186 % of control | T/C (dose: 0.37 mg/kg/injection, schedule: Q01DX010 (ip), vehicle: saline): 168 % of control | T/C (dose: 0.4 mg/kg/injection, schedule: Q01DX009 (ip), vehicle: water): 176 % of control | T/C (dose: 0.5 mg/kg/injection, schedule: Q01DX005 (ip), vehicle: saline): 169 % of control | T/C (dose: 0.64 mg/kg/injection, schedule: Q01DX009 (ip), vehicle: saline): 225 % of control | T/C (dose: 0.75 mg/kg/injection, schedule: Q01DX010 (ip), vehicle: saline): 159 % of control | T/C (dose: 1.0 mg/kg/injection, schedule: Q01DX005 (ip), vehicle: saline): 160 % of control and 197 % of control and 205 % of control | T/C (dose: 1.25 mg/kg/injection, schedule: Q01DX009 (ip), vehicle: saline): 100 % of control (2×) and 281 % of control | T/C (dose: 2.0 mg/kg/injection, schedule: Q01DX005 (ip), vehicle: saline): 175 % of control

CCCCCCCC/C=C\CCCCCCCC(=O)OCCCCCCCCCCCC
T/C (dose: 6.25 mg/kg/injection, schedule: Q01DX012 (ip), vehicle: saline with Tween-80): 100 % of control | T/C (dose: 12.5 mg/kg/injection, schedule: Q01DX012 (ip), vehicle: saline with Tween-80): 104 % of control | T/C (dose: 50.0 mg/kg/injection, schedule: Q01DX012 (ip), vehicle: saline with Tween-80): 100 % of control | T/C (dose: 100.0 mg/kg/injection, schedule: Q01DX012 (ip), vehicle: saline with Tween-80): 98 % of control | T/C (dose: 200.0 mg/kg/injection, schedule: Q01DX012 (ip), vehicle: saline with Tween-80): 101 % of control | T/C (dose: 500.0 mg/kg/injection, schedule: Q01DX012 (ip), vehicle: saline with Tween-80): 106 % of control | T/C (dose: 872.0 mg/kg/injection, schedule: Q01DX012 (ip), vehicle: saline with Tween-80): 97 % of control

O=c1[nH]c(=O)n(C2CC(O)C(CO)O2)cc1F (stereo not given)
T/C (dose: 10.0 mg/kg/injection, schedule: Q01DX010 (ip), vehicle: saline): 163 % of control | T/C (dose: 12.5 mg/kg/injection, schedule: Q04DX002 (ip), vehicle: water): 108 % of control | T/C (dose: 20.0 mg/kg/injection, schedule: Q01DX009 (ip), vehicle: saline): 155 % of control | T/C (dose: 20.0 mg/kg/injection, schedule: Q01DX010 (ip), vehicle: saline): 181 % of control | T/C (dose: 38.0 mg/kg/injection, schedule: Q01DX009 (ip), vehicle: saline): 160 % of control | T/C (dose: 40.0 mg/kg/injection, schedule: Q01DX009 (ip), vehicle: saline): 117 % of control | T/C (dose: 40.0 mg/kg/injection, schedule: Q01DX010 (ip), vehicle: saline): 222 % of control | T/C (dose: 49.0 mg/kg/injection, schedule: Q01DX009 (ip), vehicle: saline): 159 % of control and 167 % of control | T/C (dose: 50.0 mg/kg/injection, schedule: Q01DX005 (ip), vehicle: saline): 114 % of control | T/C (dose: 56.0 mg/kg/injection, schedule: Q01DX009 (ip), vehicle: saline): 123 % of control | T/C (dose: 75.0 mg/kg/injection, schedule: Q01DX009 (ip), vehicle: saline): 185 % of control | T/C (dose: 80.0 mg/kg/injection, schedule: Q01DX009 (ip), vehicle: saline): 92 % of control | T/C (dose: 100.0 mg/kg/injection, schedule: Q01DX001 (ip), vehicle: saline): 110 % of control | T/C (dose: 100.0 mg/kg/injection, schedule: Q01DX005 (ip), vehicle: saline): 98 % of control | T/C (dose: 110.0 mg/kg/injection, schedule: Q01DX009 (ip), vehicle: saline): 103 % of control | T/C (dose: 120.0 mg/kg/injection, schedule: Q01DX009 (ip), vehicle: saline): 81 % of control | T/C (dose: 180.0 mg/kg/injection, schedule: Q01DX009 (ip), vehicle: saline): 83 % of control | T/C (dose: 200.0 mg/kg/injection, schedule: Q01DX001 (ip), vehicle: saline): 111 % of control | T/C (dose: 200.0 mg/kg/injection, schedule: Q01DX005 (ip), vehicle: saline): 95 % of control | T/C (dose: 240.0 mg/kg/injection, schedule: Q04DX002 (ip), vehicle: saline): 157 % of control | T/C (dose: 350.0 mg/kg/injection, schedule: Q04DX003 (ip), vehicle: saline): 168 % of control | T/C (dose: 400.0 mg/kg/injection, schedule: Q04DX002 (ip), vehicle: saline): 164 % of control | T/C (dose: 400.0 mg/kg/injection, schedule: Q04DX003 (ip), vehicle: saline): 100 % of control

Nc1cc2ccc3ncccc3c2c2cccnc12
T/C [1]: 103 % of control | T/C [2]: 97 % of control | T/C [3]: 97 % of control

O=S1(N2CC2)=NP(N2CC2)(N2CC2)=NP(N2CC2)(N2CC2)=N1 (stereo not given)
T/C (dose: 100.0 mg/kg/injection, schedule: Q04DX002 (ip), vehicle: saline): 168 % of control | T/C (dose: 150.0 mg/kg/injection, schedule: Q04DX002 (ip), vehicle: saline): 198 % of control

CSC(/C=C1\C=Cc2ccccc2N1C)=N\S(=O)(=O)c1ccc(N)cc1
T/C (dose: 25.0 mg/kg/injection, schedule: Q04DX002 (ip), vehicle: saline with Tween-80): 107 % of control | T/C (dose: 50.0 mg/kg/injection, schedule: Q04DX002 (ip), vehicle: saline with Tween-80): 100 % of control | T/C (dose: 100.0 mg/kg/injection, schedule: Q04DX002 (ip), vehicle: saline with Tween-80): 102 % of control

O=C1CCC2(CC1)CCc1ccccc1C2=O
T/C (dose: 100.0 mg/kg/injection, schedule: Q01DX001 (ip), vehicle: saline with Tween-80): 103 % of control | T/C (dose: 200.0 mg/kg/injection, schedule: Q01DX001 (ip), vehicle: saline with Tween-80): 97 % of control | T/C (dose: 400.0 mg/kg/injection, schedule: Q01DX001 (ip), vehicle: saline with Tween-80): 103 % of control

COc1ccc(-c2nnc(N)o2)cc1OC
T/C (dose: 60.0 mg/kg/injection, schedule: Q01DX005 (ip), vehicle: saline with Tween-80): 107 % of control | T/C (dose: 120.0 mg/kg/injection, schedule: Q01DX005 (ip), vehicle: saline with Tween-80): 98 % of control | T/C (dose: 240.0 mg/kg/injection, schedule: Q01DX005 (ip), vehicle: saline with Tween-80): 103 % of control

NC(=S)Nc1cccc(C(F)(F)F)c1
T/C (dose: 100.0 mg/kg/injection, schedule: Q01DX009 (ip), vehicle: other): 104 % of control | T/C (dose: 200.0 mg/kg/injection, schedule: Q01DX009 (ip), vehicle: other): 115 % of control

CCOCC(=O)c1ccc2c(O)c3c(c(O)c2c1)C(=O)c1cccc(OC)c1C3=O
T/C (dose: 1.56 mg/kg/injection, schedule: Q01DX009 (ip), vehicle: other): 105 % of control | T/C (dose: 3.13 mg/kg/injection, schedule: Q01DX009 (ip), vehicle: other): 104 % of control | T/C (dose: 6.25 mg/kg/injection, schedule: Q01DX009 (ip), vehicle: other): 103 % of control | T/C (dose: 12.5 mg/kg/injection, schedule: Q01DX009 (ip), vehicle: other): 106 % of control | T/C (dose: 25.0 mg/kg/injection, schedule: Q01DX009 (ip), vehicle: other): 108 % of control

S=C1SCN(c2ccc(Br)cc2)CN1c1ccc2[nH]c(=S)sc2c1
T/C [4]: 106 % of control | T/C [5]: 113 % of control | T/C (dose: 25.0 mg/kg/injection, schedule: Q01DX009 (ip), vehicle: Klucel (hydroxypropylcellulose) (HPC)): 106 % of control

O=C1C(Br)=CC(=NCl)C=C1Br
T/C (dose: 3.13 mg/kg/injection, schedule: Q01DX009 (ip), vehicle: Klucel (hydroxypropylcellulose) (HPC)): 101 % of control and 88 % of control | T/C [4]: 101 % of control | T/C (dose: 6.25 mg/kg/injection, schedule: Q01DX009 (ip), vehicle: saline with Tween-80): 93 % of control | T/C [5]: 105 % of control and 94 % of control | T/C (dose: 12.5 mg/kg/injection, schedule: Q01DX009 (ip), vehicle: saline with Tween-80): 88 % of control | T/C (dose: 25.0 mg/kg/injection, schedule: Q01DX009 (ip), vehicle: saline with Tween-80): 90 % of control

CCN(CC)C1CS(=O)(=O)OC2=C1CSCC2 (stereo not given)
T/C [1]: 102 % of control | T/C [2]: 100 % of control | T/C [3]: 95 % of control

O=C1C2=C(Nc3ccccc3N2)OC1c1ccc2c(c1)OCO2 (stereo not given)
T/C (dose: 60.0 mg/kg/injection, schedule: Q01DX005 (ip), vehicle: Klucel (hydroxypropylcellulose) (HPC)): 100 % of control | T/C (dose: 120.0 mg/kg/injection, schedule: Q01DX005 (ip), vehicle: Klucel (hydroxypropylcellulose) (HPC)): 86 % of control | T/C (dose: 240.0 mg/kg/injection, schedule: Q01DX005 (ip), vehicle: Klucel (hydroxypropylcellulose) (HPC)): 89 % of control
